Legend:
[1] = test system: human keratinocytes (HaCat cells); test: Viability of human keratinocytes (HaCat cells), neutral red staining; format: cell-based; conditions: 24 hr, read-out: IC50, cell viability
[2] = test system: c-jun and p-c-jun expression in HaCat cells; test: Western blot of c-jun and p-c-jun expression in HaCat cells; format: cell-based, human; conditions: 15 μM, 1 hr
From the text: For each sample 2×10^7 cells were used. The cells were lysed, and equal amounts of protein was fractionated on polyacrylamide gel and then transferred to PVDF membrane. The amount of the protein was detected by immuno-blotting with monoclonal anti-c-Jun or p-c-Jun antibodies (Cayman, Ann Arbor, Mich., USA). A second antibody conjugated to horseradish peroxidase was used and visualized with chemiluminescent Kit (Pierce, Rockford, Ill., USA) on film. […] Activation of the […] pathway produces p-c-Jun as a major end, while initiating apoptosis in certain cell-lines.

[3] = test system: Caspase 3 activity in human Jurkat lymphoma cells; test: Caspase 3 activity in human Jurkat lymphoma cell-line, fluorimetric Ac-DEVD-AMC; format: cell-based; conditions: 4 hr after exposure, compared to vehicle treated cells
Method: This example illustrates Caspase 3 activity data obtained by administering compound (Ia) to a human Jurkat lymphoma cell-line. The results are depicted FIG. 8A. Each point is the mean of 2 determinations.
Caspase 3 activity was measured by an enzymatic fluorimetric method using a fluorigenic substrate (Ac-DEVD-AMC), which produces blue fluorescence detected at 360 nm wavelength. See Garcia-Calvo et al., J Biol Chem, 273(49), 32608-13 (1998). When AMC is cleaved from the substrate by caspase-3, and caspase-3-like enzymes, it produces a yellow-green fluorescence, which can be monitored by a fluorimeter at 460 nm. The amount of yellow green fluorescence is proportional to the activity of caspase-3 in the cell extract sample.
The human Jurkat lymphoma cell-line, as used in FIG. 8A, and the human MDR colon cancer LS1034 lysates, as used in FIG. 8B, were prepared by Triton X-100 extraction 4 hr after exposure to the applicable compound (10 or 20 μM) or the vehicle. Whole cell lysate was added to a buffer containing 100 μM peptide substrate, 100 mM HEPES, 10% glycerol, 1 mM EDTA and 10 mM dithiothreitol. Measurements were taken every 5 min for 80 min. These experiments were also monitored in the presence of a specific caspase-3 inhibitor, DEVD-AMC-CHO, which was added after 45 or 60 min to the reaction mixture, to ascertain the specificity of the enzyme.

[4] = test system: CEM/C1 human leukemia cells; test: Cell proliferation of CEM/C1 human leukemia cells, 3H thymidine incorporation; format: cell-based
Method: […] Cells, 10,000/well, were harvested and the incorporated radioactivity was determined by liquid scintillation in a beta counter.

[5] = test system: CNXF SF268; test: Monolayer Assay, PI: CNXF SF268; format: cell-based, human
From the text: (§1) This example illustrates cell proliferation data in the form of IC50, IC70 and IC90 values obtained by exposure of human cancer cell-lines to compound (Ia). […].

[6] = test system: CXF HT29; test: Monolayer Assay, PI: CXF HT29 (Colorectal); format: cell-based, human
From the text: as §1

[7] = test system: LXF 1121L; test: Monolayer Assay, PI: LXF 1121L (Lung); format: cell-based, human
From the text: as §1

[8] = test system: LXF 289L; test: Monolayer Assay, PI: LXF 289L (Lung); format: cell-based, human
From the text: as §1

[9] = test system: OVXF 899L; test: Monolayer Assay, PI: OVXF 899L (Ovarian Cancer); format: cell-based, human
From the text: as §1

[10] = test system: PAXF 1657L; test: Monolayer Assay, PI: PAXF 1657L; format: cell-based, human
From the text: as §1

[11] = test system: PXF 1752L; test: Monolayer Assay, PI: PXF 1752L (Pleuramesothelioma); format: cell-based, human
From the text: as §1

[12] = test system: XCL A431; test: Monolayer Assay, PI: XCL A431; format: cell-based, human
From the text: as §1

CN[C@H]1CC[C@@H](c2ccc(Cl)c(Cl)c2)c2ccc(C#CCCCO)cc21 [compound (Ia), (1S-cis)-4-(3,4-dichlorophenyl)-7-(5-hydroxy-1-pentyn-1-yl)-1,2,3,4-tetrahydro-N-methyl-1-naphthalenamine hydroiodide]
IC50 [1]: 18.5 µM
effect on c-Jun / p-c-Jun (MAPK pathway) [2]: activation of the c-Jun-N-terminal kinase (JNK) pathway
Caspase 3 activity [3]: increase in the activity of the caspase-3
effect compared to sertraline and paroxetine [4]: significantly higher effects compared to sertraline and paroxetine
cell proliferation ([4]; 1 μM, 3H thymidine incorporation 24 hours): 38.8 % of controls
inhibition at 10 µM ([4]; Homo sapiens, 10 μM, 3H thymidine incorporation): ~95%
effect on cell proliferation ([4]; already evident at 1 μM): dose dependent decrease in cell proliferation
Test/Control (%) ([5]; 2.3 μg/ml): 70%
Test/Control activity class ([5]; 2.3 μg/ml): − (− (T/C = 50))
Test/Control (%) ([5]; 7.5 μg/ml): 5%
Test/Control activity class ([5]; 7.5 μg/ml): +++ (+++ (T/C < 10))
Test/Control (%) ([5]; 23. μg/ml): 4%
Test/Control activity class ([5]; 23. μg/ml): +++ (+++ (T/C < 10))
Test/Control (%) ([5]; 75. μg/ml): 3%
Test/Control activity class ([5]; 75. μg/ml): +++ (+++ (T/C < 10))
Test/Control (%) ([5]; .75 μg/ml): 91%
Test/Control activity class ([5]; .75 μg/ml): − (− (T/C = 50))
Test/Control (%) ([6]; 2.3 μg/ml): 100%
Test/Control activity class ([6]; 2.3 μg/ml): − (− (T/C = 50))
Test/Control (%) ([6]; 7.5 μg/ml): 3%
Test/Control activity class ([6]; 7.5 μg/ml): +++ (+++ (T/C < 10))
Test/Control (%) ([6]; 23. μg/ml): 1%
Test/Control activity class ([6]; 23. μg/ml): +++ (+++ (T/C < 10))
Test/Control (%) ([6]; 75. μg/ml): 1%
Test/Control activity class ([6]; 75. μg/ml): +++ (+++ (T/C < 10))
Test/Control (%) ([6]; .75 μg/ml): 99%
Test/Control activity class ([6]; .75 μg/ml): − (− (T/C = 50))
Test/Control (%) ([7]; 2.3 μg/ml): 104%
Test/Control activity class ([7]; 2.3 μg/ml): − (− (T/C = 50))
Test/Control (%) ([7]; 7.5 μg/ml): 72%
Test/Control activity class ([7]; 7.5 μg/ml): − (− (T/C = 50))
Test/Control (%) ([7]; 23. μg/ml): 2%
Test/Control activity class ([7]; 23. μg/ml): +++ (+++ (T/C < 10))
Test/Control (%) ([7]; 75. μg/ml): 1%
Test/Control activity class ([7]; 75. μg/ml): +++ (+++ (T/C < 10))
Test/Control (%) ([7]; .75 μg/ml): 103%
Test/Control activity class ([7]; .75 μg/ml): − (− (T/C = 50))
Test/Control (%) ([8]; 2.3 μg/ml): 101%
Test/Control activity class ([8]; 2.3 μg/ml): − (− (T/C = 50))
Test/Control (%) ([8]; 7.5 μg/ml): 42%
Test/Control activity class ([8]; 7.5 μg/ml): + (+ (30 <= T/C < 50))
Test/Control (%) ([8]; 23. μg/ml): 4%
Test/Control activity class ([8]; 23. μg/ml): +++ (+++ (T/C < 10))
Test/Control (%) ([8]; 75. μg/ml): 3%
Test/Control activity class ([8]; 75. μg/ml): +++ (+++ (T/C < 10))
Test/Control (%) ([8]; .75 μg/ml): 94%
Test/Control activity class ([8]; .75 μg/ml): − (− (T/C = 50))
Test/Control (%) ([9]; 2.3 μg/ml): 94%
Test/Control activity class ([9]; 2.3 μg/ml): − (− (T/C = 50))
Test/Control (%) ([9]; 7.5 μg/ml): 10%
Test/Control activity class ([9]; 7.5 μg/ml): ++ (++ (10 <= T/C < 30))
Test/Control (%) ([9]; 23. μg/ml): 3%
Test/Control activity class ([9]; 23. μg/ml): +++ (+++ (T/C < 10))
Test/Control (%) ([9]; 75. μg/ml): 4%
Test/Control activity class ([9]; 75. μg/ml): +++ (+++ (T/C < 10))
Test/Control (%) ([9]; .75 μg/ml): 100%
Test/Control activity class ([9]; .75 μg/ml): − (− (T/C = 50))
Test/Control (%) ([10]; 2.3 μg/ml): 92%
Test/Control activity class ([10]; 2.3 μg/ml): − (− (T/C = 50))
Test/Control (%) ([10]; 7.5 μg/ml): 40%
Test/Control activity class ([10]; 7.5 μg/ml): + (+ (30 <= T/C < 50))
Test/Control (%) ([10]; 23. μg/ml): 6%
Test/Control activity class ([10]; 23. μg/ml): +++ (+++ (T/C < 10))
Test/Control (%) ([10]; 75. μg/ml): 5%
Test/Control activity class ([10]; 75. μg/ml): +++ (+++ (T/C < 10))
Test/Control (%) ([10]; .75 μg/ml): 96%
Test/Control activity class ([10]; .75 μg/ml): − (− (T/C = 50))
Test/Control (%) ([11]; 2.3 μg/ml): 81%
Test/Control activity class ([11]; 2.3 μg/ml): − (− (T/C = 50))
Test/Control (%) ([11]; 7.5 μg/ml): 27%
Test/Control activity class ([11]; 7.5 μg/ml): ++ (++ (10 <= T/C < 30))
Test/Control (%) ([11]; 23. μg/ml): 5%
Test/Control activity class ([11]; 23. μg/ml): +++ (+++ (T/C < 10))
Test/Control (%) ([11]; 75. μg/ml): 3%
Test/Control activity class ([11]; 75. μg/ml): +++ (+++ (T/C < 10))
Test/Control (%) ([11]; .75 μg/ml): 99%
Test/Control activity class ([11]; .75 μg/ml): − (− (T/C = 50))
Test/Control (%) ([12]; 2.3 μg/ml): 94%
Test/Control activity class ([12]; 2.3 μg/ml): − (− (T/C = 50))
Test/Control (%) ([12]; 7.5 μg/ml): 6%
Test/Control activity class ([12]; 7.5 μg/ml): +++ (+++ (T/C < 10))
Test/Control (%) ([12]; 23. μg/ml): 3%
Test/Control activity class ([12]; 23. μg/ml): +++ (+++ (T/C < 10))
Test/Control (%) ([12]; 75. μg/ml): 2%
Test/Control activity class ([12]; 75. μg/ml): +++ (+++ (T/C < 10))
Test/Control (%) ([12]; .75 μg/ml): 100%
Test/Control activity class ([12]; .75 μg/ml): − (− (T/C = 50))

Source: US20100279990A1, “ANTIPROLIFERATIVE COMPOUNDS, COMPOSITIONS AND METHODS OF USE” (RAMOT AT TEL-AVIV UNIVERSITY LTD., priority 2006, published 2010)
